Where two headings read alike, the source gives them in different places.
Legend:
CRL2813 human melanoma = assay: SRB assay (inhibition of cell proliferation); type: cell-based
Source text: (§1) A sulfur rhodamine B (SRB) assay was used to determine the extent of inhibition of cell proliferation as a measure of the anti-cancer activity of compounds of the present disclosure. The reagent SRB binds to cellular proteins and absorbs light proportionally to the cellular protein content, which is a surrogate marker for the number of cells. According to aspects of the present disclosure, the assay can be used to with any cancer cell line including breast cancer cell lines, prostate cancer cell lines, melanoma cell lines, lung cancer cell lines or any other cell lines of the cancers described herein.
(§2) The following protocol was used to determine the growth characteristics of certain cell lines CRL2351 human breast cancer and CRL2813 human melanoma from which cell lines having doubling times less than 48 hours were selected for growth inhibition experiments. […] The following materials were used in addition to the cancel cell lines: complete (5% fetal calf serum added) tissue culture media, 96-well tissue culture plates, Sulforhodamine B dye (SRB, 0.57% w/w), […] (TCA, 10%), acetic acid glacial (1%) and 10 mM Tris base. The cells were prepared and plated. Cancer cells were grown to 80% confluency in an incubator. The cells were trypsinized per standard protocol or as needed for each cell line. The trypsin was neutralized, cells dissociated and counted. Each cell line was plated at a density of 500, 1000 and 3000 cells per well (six wells each) in five separate plates. The cells were then returned to the incubator. One plate was then removed each day starting day one after plating. 100 μl of 10% TCA was then added and the cells were fixed at 4° C. until all the cells were fixed. […] The cell growth for vehicle treatment is considered to be 100%. The optical density was then measured and plotted for each starting cell number and cell line against time. The percent cell growth inhibition was calculated as 100 minus the % of control cell growth. The % of control cell growth=((mean OD sample−Mean OD day 0)/(mean OD vehicle−Mean OD day 0))*100.

[1] = system: CRL2351 human breast cancer; assay: SRB assay (inhibition of cell proliferation); type: cell-based; conditions: CRL2351 human breast cancer cells
Source text: as §1, §2

eIF4E/eIF4G interaction = eIF4E/eIF4G interaction (Homo sapiens, UniProt P06730); assay: Fluorescent polarization assay; type: binding; conditions: FITC eIF4G peptide and recombinant eIF4E, ratio to Z (4EGI-1 = 1)
Method: The difference between the two measurement yields net polarization which is considered full signal of the assay (100% control). […] The activity of compound at each concentration is determined by comparing the fluorescent polarization (FP) signal in the presence of compound to the control (no compound) value. The percent inhibition is =100-((FP compound/FP control)*100).

[2] = Homo sapiens, CRL2813, CRL2813 human melanoma cells, summary table, read-out: IC50 [μM} CRL2813
[3] = Homo sapiens, summary table, read-out: IC50 [μM} CRL2351
[4] = CRL2813 human melanoma cells, summary table, read-out: IC50 [μM} CRL2813
[5] = summary table, read-out: IC50 [μM} CRL2351
[6] = Homo sapiens, CRL2813, CRL2813 human melanoma cells, Tables 1, 4, 5, read-out: SRB-IC50 (μM) 2813
[7] = Homo sapiens, Tables 1, 4, 5, read-out: SRB-IC50 (μM) 2351

Sequence of eIF4E/eIF4G interaction (P06730 whole entry): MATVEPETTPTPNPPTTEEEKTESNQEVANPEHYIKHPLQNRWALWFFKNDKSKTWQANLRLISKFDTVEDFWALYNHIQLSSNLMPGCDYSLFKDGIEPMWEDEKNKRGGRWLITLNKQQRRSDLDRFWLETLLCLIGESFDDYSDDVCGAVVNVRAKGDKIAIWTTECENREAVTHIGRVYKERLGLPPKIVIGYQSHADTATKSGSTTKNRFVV

Row | SMILES | IC50 (CRL2813 human melanoma; [2]) [µM] | IC50 [1, 3] [µM] | Fp (ratio to Z) (eIF4E/eIF4G interaction) | IC50 (CRL2813 human melanoma; [4]) [µM] | IC50 [1, 5] [µM] | IC50 (CRL2813 human melanoma; [6]) [µM] | IC50 [1, 7] [µM]
1 | COc1ccc(-c2sc(NN=C(Cc3ccccc3[N+](=O)[O-])C(=O)O)nc2-c2ccc(OC)c(OC)c2)cc1 [KY-343PR] | > 20 | > 20 | 1 |  |  |  | 
2 | Cc1ccc(-c2nc(NN=C(Cc3ccccc3[N+](=O)[O-])C(=O)O)sc2-c2ccc(Cl)cc2)cc1 [KY-351PR] | 3 | 2.5 | 1.1 |  |  |  | 
3 | COc1ccc(-c2nc(NN=C(Cc3ccccc3[N+](=O)[O-])C(=O)O)sc2-c2ccc(-n3cc(-c4ccc(N)cc4)nn3)cc2)cc1 [KY-449] | 16 ± 1.8 | 17 | 2.5 |  |  |  | 
4 | O=C(O)C(=NNc1nc(-c2ccc(Cl)c(Cl)c2)cs1)c1ccccc1[N+](=O)[O-] (stereo in doubt) [KY-782-E, (E)-2-(2-(4-(3,4-dichlorophenyl)thiazol-2-yl)hydrazono)-2-(2-nitrophenyl)acetic acid] |  |  | 0.94 | 2.2 | 10 |  | 
5 | COc1ccc(-c2sc(N/N=C(/Cc3ccccc3[N+](=O)[O-])C(=O)O)nc2-c2ccc(-c3ccccc3)cc2)cc1 [KY-577SF, 2-{[4-Biphenyl-4-yl-5-(4-methoxy-phenyl)-thiazol-2-yl]-hydrazono}-3-(2-nitro-phenyl)-propionic acid] |  |  | 1 | 0.1 | 0.7 |  | 
6 | [N-]=[N+]=NCCCCOc1ccc(-c2csc(NN=C(Cc3ccccc3[N+](=O)[O-])C(=O)O)n2)cc1 [KH-113s] | 12.6 | 12 | 1.05 |  |  | 12.5 | 11
7 | COCc1cn(-c2ccc(-c3sc(NN=C(Cc4ccccc4[N+](=O)[O-])C(=O)O)nc3-c3ccc(OC)cc3)cc2)nn1 [KY-443A16-19] | 14 ± 0.73 | > 20 | 1 |  |  |  | 
8 | COc1ccc(-c2nc(NN=C(Cc3ccccc3[N+](=O)[O-])C(=O)O)sc2-c2ccc(OC)cc2)cc1 [KY-323B] |  |  | 0.6 | 7 ± 2.6 | 20 ± 3.7 |  | 
9 | COc1ccc(-c2sc(N/N=C(/Cc3ccccc3[N+](=O)[O-])C(=O)O)nc2-c2ccc(C3CCCCC3)cc2)cc1 [KY-612S] |  | 11 | 1.8 | 0.3 |  |  | 
10 | COc1ccc(-c2nc(NN=C(Cc3ccccc3[N+](=O)[O-])C(=O)O)sc2-c2ccc(OC)c(OC)c2)cc1 [KY-341PRI] | 5 ± 1.74 | 4 ± 0.51 | 1.2 |  |  |  | 
11 | O=C(O)/C(Cc1ccccc1[N+](=O)[O-])=N/Nc1nc(-c2ccc(OC(F)(F)F)cc2)cs1 [KY-627S] | > 20 | > 20 | 0.65 |  |  |  | 
12 | COc1ccc(-c2nc(N/N=C(\Cc3ccccc3[N+](=O)[O-])C(=O)O)sc2-c2ccc(-c3ccccc3)cc2)cc1 [KY-435-S] |  |  | 2 | < 0.54 | < 0.54 |  | 
13 | O=C(O)/C(Cc1c[nH]c2ccccc12)=N\Nc1nc(-c2ccc(Cl)c(Cl)c2)cs1 [KY-753, (Z/E)-2-(2-(4-(3,4-dichlorophenyl)thiazol-2-yl)hydrazono)-3-(1H-indol-3-yl)propanoic acid] | 7.5 | 13.5 | 0.85 |  |  |  | 
14 | [N-]=[N+]=NCCOc1ccc(-c2csc(N/N=C(/Cc3ccccc3[N+](=O)[O-])C(=O)O)n2)cc1 [KH-166] | 9 | 5 | 0.80 |  |  | 9 | 5
15 | N.O=C(O)/C(Cn1cc(-c2ccccn2)nn1)=N/Nc1nc(-c2ccc(Cl)c(Cl)c2)cs1 [KY-767, ammonium (E)-2-(2-(4-(3,4-dichlorophenyl)thiazol-2-yl)hydrazono)-3-(4-(pyridin-2-yl)-1H-1,2,3-triazol-1-yl)propanoate] | 3.5 | 9 | 0.75 |  |  |  | 
16 | CCCc1sc(N/N=C(/Cc2ccccc2[N+](=O)[O-])C(=O)O)nc1-c1ccc(OC)cc1 [KY-582S] | 11.6 | 13.2 | 0.9 |  |  |  | 

From patent US8969573B2, “Compounds for the inhibition of cellular proliferation” (President and Fellows of Harvard College, priority 2010, dated 2015)
